Assay results as given in patent US8778626B2, “Clickable cross-linker” (California Institute of Technology, priority 2010, dated 2014).

Key:
Cul1 protein = molecular target: T1, Cul1 protein (Homo sapiens, UniProt Q13616); test: in vivo cross-linking of HEK 293 cells followed by Western blot analysis of Cul1; assay type: cell-based; conditions: inferred from cross-linking of cytoplasmic Cul1 in HEK 293 cells
T1 construct: expressed in transfected cells
Method: (§1) To test the cell permeability and water solubility of CXL-1, in vivo cross-linking of HEK 293 cells, followed by Western blot analysis of the Cul1 protein were performed. The in vivo cross-linking of HEK 293 cells by CXL-1, followed by Western blot analysis was carried out as described previously with minor modifications (Lee et al., Mol. Cell. Proteomics 2010, Electronic preprint. doi:10.1074/mcp.M110.006460.) Briefly, to facilitate the purification of Cul1, a HEK 293-derived stable cell line capable of expressing tagged Cul1 upon tetracycline treatment was constructed using the T-REx™ (Tetracycline-regulated Expression) system (Invitrogen, Carlsbad, Calif.). The tandem tag used here consists of a hexa-histidine sequence and a biotinylation signal sequence (Tagwerker et al., 2006). Biotinylation is catalyzed by endogenous biotin ligases, which are present in all eukaryotic cells (Cronan J. Biol. Chem. 1990, 265, 10327). A specific lysine residue in the biotinylation signal sequence functions as an acceptor site for biotin in vivo (Kulman et al., Protein Expr. Purif. 2007, 52, 320).
Tagged Cul1 was induced with 1.0 μg/mL tetracycline for 4 hours in experiments for in vivo cross-linking. Twenty four hours after induction, cells were subject to in vivo cross-linking by treating 0, 0.1, 0.2, 0.5, and 1.0 mM of CXL-1, respectively, and incubated for 1 h at 37° C. […]

ubiquitin = molecular target: T2, ubiquitin (Homo sapiens, UniProt P0CG47); test: circular dichroism spectrometry of CXL-1 cross-linked ubiquitin; conditions: CD spectra, 0.25 or 1 mM CXL-1, t=0 and t=30 min, 1×PBS pH 7.4 (FIG. 10)
T2 construct: cross-linking of ubiquitin (PDB ID: 1 UBQ)
Method: The CXL-1 cross-linked ubiquitin samples were analyzed by an Aviv Model 62A DS Circular Dichroism (CD) Spectrometer (Lakewood, N.J.) at room temperature. The critical instrumental parameters included: acquisition range=200 to 300 nm, step size=1.00 nm, averaging time=5 s, bandwidth=1 nm, and path length=1 mm. One scan was recorded for each spectrum. For CXL-1 cross-linked samples, 1 to 4 μL of 50 mM CXL-1 stock solution in DMSO was added to 196 to 199 μL of 0.1 mg/mL ubiquitin in 1×PBS pH 7.4 to yield a final concentration of 0.25 to 1 mM CXL-1 in 200 CD spectra were collected upon addition of CXL-1 (t=0) and after 30 min of cross-linking reaction (t=0.5 h).
Circular dichroism (CD) spectrometry is a useful analytical technique for quick investigation of secondary structure, folding, and binding properties of peptides and proteins (Greenfield, N. J. Nat. Protocols 2007, 1, 2876). […] The CD spectra of native ubiquitin were previously recorded, yielding the secondary structure analysis of 6% α-helix, 10% β-sheet and 84% random structures, which can be observed as increasingly negative ellipticity over the range of 225 to 240 nm (Jenson et al., Biochim. Biophys. Acta 1980, 624, 378, the entire contents of which are herein incorporated by reference). […]

[1] = water solubility of CXL-1 verified by in vivo cross-linking; assay type: physicochemical; conditions: PBS; inferred from in vivo cross-linking of Cul1
Method: as §1
Cul1 is a ubiquitin ligase that attaches a ubiquitin chain on target substrates for proteasome-catalyzed degradation (Deshaies, R. J. Annu. Rev. Cell Dev. Biol. 1999, 15, 435). Cul1 is a prototype of the cullin ligase family, and constitutes modular ligase complexes with other binding partners. […]

HEK 293 cells = test: cytotoxicity of CXL-1 on cells during in vivo cross-linking; assay type: cell-based
Method: Tagged Cul1 was induced with 1.0 μg/mL tetracycline for 4 hours in experiments for in vivo cross-linking. Twenty four hours after induction, cells were subject to in vivo cross-linking by treating 0, 0.1, 0.2, 0.5, and 1.0 mM of CXL-1, respectively, and incubated for 1 h at 37° C. After the completion of the cross-linking, cells were lysed for 30 minutes at 4° C. with the lysis buffer (0.050 M HEPES, pH 7.5, 0.0050 M Mg(OAc)2, 0.070 M KOAc, 10% glycerol, and 0.4% IGEPAL CA630). The lysate was centrifuged at 16,600 g at 4° C. for 20 min and the supernatant was used for Western blot analysis.
Cul1 is a ubiquitin ligase that attaches a ubiquitin chain on target substrates for proteasome-catalyzed degradation (Deshaies, R. J. Annu. Rev. Cell Dev. Biol. 1999, 15, 435). Cul1 is a prototype of the cullin ligase family, and constitutes modular ligase complexes with other binding partners. […] Secondly, if cytoplasmic Cul1 protein is cross-linked by CXL-1, the postulated cell permeability and water solubility from the design of CXL-1 can be verified. FIG. 11 depicts the Western blot analysis of cross-linked Cul1 samples acquired from in vivo cross-linking of HEK 293 cells. From the observation of the higher molecular weight band, Cul1 is cross-linked by CXL-1 in a range of approximately 0.5 to 1.0 mM. […] Accordingly, CXL-1 is compatible with the cellular environment for in vivo cross-linking.

T1 sequence (Q13616 whole entry): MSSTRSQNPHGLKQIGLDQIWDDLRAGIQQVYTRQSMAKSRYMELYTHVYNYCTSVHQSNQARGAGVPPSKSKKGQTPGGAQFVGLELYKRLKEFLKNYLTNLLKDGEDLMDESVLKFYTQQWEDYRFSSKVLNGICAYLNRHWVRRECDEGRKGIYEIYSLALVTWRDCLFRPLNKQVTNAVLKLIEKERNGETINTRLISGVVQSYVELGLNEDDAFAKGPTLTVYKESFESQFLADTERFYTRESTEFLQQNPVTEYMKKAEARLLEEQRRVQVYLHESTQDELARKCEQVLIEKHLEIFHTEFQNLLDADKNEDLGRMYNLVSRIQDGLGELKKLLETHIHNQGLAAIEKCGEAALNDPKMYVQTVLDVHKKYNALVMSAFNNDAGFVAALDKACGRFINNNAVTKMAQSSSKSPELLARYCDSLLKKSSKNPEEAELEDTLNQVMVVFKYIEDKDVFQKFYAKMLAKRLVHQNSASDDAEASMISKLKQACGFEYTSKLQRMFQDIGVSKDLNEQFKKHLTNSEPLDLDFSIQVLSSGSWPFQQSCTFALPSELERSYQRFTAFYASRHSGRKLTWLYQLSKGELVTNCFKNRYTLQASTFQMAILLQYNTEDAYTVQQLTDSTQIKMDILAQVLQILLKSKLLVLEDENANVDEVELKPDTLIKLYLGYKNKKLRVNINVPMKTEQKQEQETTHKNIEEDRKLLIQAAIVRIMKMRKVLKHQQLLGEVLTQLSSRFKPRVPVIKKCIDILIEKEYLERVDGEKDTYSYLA

NHS-activated 2,2′-(hex-5-ynylazanediyl)diacetic acid [CXL-1]
cell permeability (Cul1 protein): cell-permeable | contribution of CXL-1 on ubiquitin secondary structure (ubiquitin): minimal or undetectable | solubility [1]: soluble in PBS | cytotoxic activity on cells (HEK 293 cells; CXL-1 in working concentration ranges): no or minimal cytotoxic activity | cell toxicity (HEK 293 cells; treatment of CXL-1 up to 1 mM, HEK 293 cells, 1 h at 37° C.): did not induce any significant cell toxicity
